Measured values from patent publication US5162361A, “Method of treating diseases associated with elevated levels of interleukin 1” (priority 1990, dated 1992).

Tests used:
IL-1α mRNA = assay: Northern blot analysis of IL-1α mRNA expression; format: cell-based, rat; conditions: 1 μM dexamethasone, LPS, 3 h, FIG. 2
Experimental: Specific transcription of IL-1α mRNA synthesis was assessed by incubating cells with and without 10 μM pentamidine or 1 μM of the corticosteroid, dexamethasone in the presence or absence of lipopolysaccharide (LPS). At the end of a 3 hour incubation period, the cells were lysed and the total cellular RNA was collected, blotted onto a nitrocellulose filter and probed with ^32 P-labeled IL-1α cDNA. […] In contrast, mRNA for IL-1α was not seen in dexamethasone treated cells.
For determination of IL-1 mRNA levels, cells (4×10^6) were cultured with or without pentamidine (10 μM) or dexamethasone (1 μM) in media with 10% FCS in the presence or absence of LPS (1 μg/ml) for 3 hours. Total cellular RNA was isolated by quanidinium-thiocyanate phenolchloroform extraction (P. Chomczynski et al., Anal. Bioch. 162, 156 (1987)). RNA (10 μg) was electrophoresed in 1.2% agarose gels as previously described (H. Leharch et al., Biochemistry 4743 (1977)). […] Hybridizing species were detected by autoradiography at -70° C., using Kodak XAR film with an intensifying screen. The total RNA levels per lane on the gel was assessed by monitoring 28S and 18S, and expression of α-tubulin mRNA. Accumulation of α-tubulin mRNA was determined by probing the same blot with ^32 P labeled 30 mer oligonucleotide (Du Pont).

IL-1α = assay: Western blot analysis of cell associated IL-1α; format: cell-based, rat; conditions: 1 μM dexamethasone, LPS, 24 h, FIG. 3
Experimental: To determine the effect of pentamidine on cellular stores of IL-1, intracellular levels of IL-1 were quantitated by incubating cells with and without 10 μM pentamidine and LPS for 24 hours. At the end of this incubation period, the cells were washed, lysed and the total cellular protein was collected for Western blot analysis. […] This is in agreement with the generally accepted existence of a precursor form of IL-1 with a molecular weight in the range of 31-33 kD (J. Giri et al., J. Immunol. 134, 343 (1985)).
Cells (4×10^6 cells) were oultured with pentamidine (10μM) or dexamethasone (1μM) in media with 10% fetal calf serum (FCS) in the presence or absence of LPS (1 μg/ml) for 24 hours. The cells were washed twice in HBSS and then scraped in homogenizing buffer (HBSS containing 0.1 mM EGTA, 1 mM pmsf, 10 μg/ml leupeptin, 1 KIU/ml aprotinin, pH 7.4). The cell suspension was left on ice for 10 minutes at which time the swollen cells were disrupted by sonication. The nuclei and undisrupted cells were pelleted by centrifugation at 800 rpm for 10 minutes and were discarded. The supernatant was centrifugated at 39,000 rpm for 1 hour at 4° C. After centrifugation, the supernatants containing cytosolic components of the cell was carefully removed and was used as the cytosol fraction. […] Molecular weight references were determined by running one lane with pre-stained molecular weight standards.

Ia antigen = Ia antigen expression on alveolar macrophages (flow cytometry); format: cell-based, rat
Experimental: ^a Ia antigen expression - Alveolar macrophages were diluted to 1×10^6 cells/ml in RPMI (supplemented as above). Three mls. (3×10^6 cells) were added to sterile teflon vials and treated with pentamidine or dexamethasone for 4 hours at 37° C., 5% CO2, followed by the addition of rat γ IFN at 100 U/ml. Cells were incubated for 18 hours, pelleted, counted and adjusted to 1×10^7 cells/ml in ice cold standard buffer (HBSS, 0.1% Na azide, 1% BSA).
Aliquots of cells (50 μl in quadruplicate) from the various treatment groups were plated to a 96 well round bottom plate (Linbro) and incubated for 45 minutes on ice with 50 μl aliquots of one of the following: monoclonal anti-rat OXS (Sera-lab), monoclonal anti-mouse OX6 (Sera-lab), both at 0.5 μg/5×10^5 cells, or HBSS (control). Cells were washed 3× with standard buffer and incubated for 45 minutes on ice, in the dark, with 50 μl of phycoerythrin-labeled goat anti-mouse IGGI (Fisher Biotech) at 1 μg/5×10^5 cells. Cells were washed 3× with standard buffer, resuspended in 0.4 ml of standard buffer and analyzed via flow cytometry.

[1] = tested on: Pulmonary alveolar macrophages; assay: Phagocytosis by pulmonary alveolar macrophages (Fluoresbrite beads, flow cytometry); format: cell-based, rat
Experimental: One ml aliquots were added to sterile teflon vials (Nalgene) along with pentamidine or dexamethasone (Sigma) as indicated, and incubated for 4 hours at 37° C., 5% CO2. Fluoresbrite carboxylate beads, 1.73 μm (Polysciences) were used to achieve a 100:1 bead to cell ratio and the suspension was incubated for 45 minutes at 37° C., 5% CO2 with gentle agitation. Cell suspensions were then layered over 3 mls. of RPMI/FCS+0.3% BSA, and cells pelleted at 150 xg for 10 minutes. Supernates were discarded and cells resuspended in 1 ml of RPMI/FCS for analysis via flow cytometry. The data presented above is the mean of the percentage of cells taking up one or more beads of triplicate cultures.

IL-1 [2] = assay: IL-1 release from alveolar macrophages (thymocyte co-stimulation bioassay); format: cell-based, rat; conditions: for Effect on IL-1: LPS, 24 h, FIG. 7
Experimental: Pulmonary alveolar macrophages were collected by lavaging the lungs as previously described (D. B. Warheit et al., Am. Rev. Resp. Dis. 134, 128 (1986)). Once washed and resuspended, the macrophages were allowed to adhere to plastic plates in serum free RPMI 1640 containing 25 mM Hepes, 2 mM L-glutamine, 50 μg/ml gentamicin and streptomycin (media). Following adherence for 1 hour at 37° C. in 5% CO2, the plates were washed once with warm media to remove nonadherent cells, cells were resuspended in media with 10% FCS and treated with or without pentamidine at the indicated concentration and LPS (5 ng/ml) for 24 hours). IL-1 activity was assayed using a thymocyte co-stimulation assay (S. B. Mizel in Methods in Macrophage Biology, Editors, Herscowitz and Holden (1981)). Single cell thymocyte suspension from B6C3F1 mice (female, 5-9 weeks old) at a concentration of 2.0×10^7 /ml in media containing 10% FCS, and 2.5×10^-5 M 2-β mercaptoethanol were added in 50 μl aliquots to each well of flat bottom microtiter plates along with 50 μl of PHA at 2.5 μg/ml. Serial dilution of supernatants or cells were made in media with 10% FCS and added in 100 μl aliquots. IL-1 activity was measured by quantifying the uptake of 3Hthymidine during the last 6 hours of a 72 hour culture at 37° C. and 5% CO2. Cells were harvested onto glass fiber filters and filter associated radioactivity counted in a scintillation counter.
(§1) In vitro studies were performed by taking alveolar macrophages from normal healthy rat lungs and culturing them in the presence of an imidazoline with the inducer lipopolysaccharide for 24 hours. The standard bioassay for IL-1 was performed (see above).

tumor necrosis factor = assay: Tumor necrosis factor secretion by rat macrophages; format: cell-based
Experimental: It has also been observed that pentamidine (10^-5 M) blocks the secretion of tumor necrosis factor in rat macrophages (42 units/ml - pentamidine vs. 82 units/ml - control), as well as tumor necrosis factor and IL-6 in human macrophages, where at a concentration of 10^-5 M pentamidine, tumor necrosis factor and IL-6 secretion are suppressed >50%. These additional cytokines are also very influential mediators in inflammatory diseases.
as §1

IL-1 [3] = assay: Western blot analysis of IL-1 on cellular protein from imidazoline treated cells; format: cell-based, rat
Excerpt: In addition, Western blot analysis of IL-1 on cellular protein derived from imidazoline treated cells was recently performed. This method definitively identifies the presence or absence of the protein using electrophoretic techniques to separate by molecular weight IL-1 from other proteins followed by staining with specific antibody fog IL-1.

[4] = In vitro toxicity to the cell (LD50); format: cell-based; conditions: rat macrophages
rat macrophages = assay: In vitro toxicity to the cell (LD50); format: cell-based; conditions: imidazoline, summary statement; compared with pentamidine

Compound | IL-1α mRNA expression (IL-1α mRNA) | Cell associated IL-1α (Western blot) (IL-1α) | Ia Antigen Expression (MFI) (Ia antigen; Dexamethasone 10^-6 M (control 459), p < 0.025 vs. control) | Mean concentration of Ia molecules on Ia positive cells (Ia antigen; result in words) | Phagocytic Index ([1]; Dexamethasone 10^-6 M (control 32), p < 0.025 vs. control) [%] | Phagocytic capacity of alveolar macrophages ([1]; result in words) | Effect on IL-1 (IL-1 [2]; imidazoline 10^-6 M, 10^-5 M and 10^-4 M) | Effect on IL-1 (IL-1 [2]; imidazoline 10^-8 M) | Block of IL-1 in rat macrophages (IL-1 [2]; imidazoline, summary statement) | Tumor Necrosis Factor (tumor necrosis factor; 10^-5 M Imidazoline, LPS, 24 h (control 83 ± 11)) [units/ml] | Block of tumor necrosis factor in rat macrophages (tumor necrosis factor; imidazoline, summary statement) | Block of IL-1 secretion (Western blot) (IL-1 [3]) | CC50 [4] [µM] | Toxicity to the cell (rat macrophages)
C[C@@H]1C[C@H]2[C@@H]3CCC4=CC(=O)C=C[C@]4(C)[C@@]3(F)[C@@H](O)C[C@]2(C)[C@@]1(O)C(=O)CO [Dexamethasone] | not seen | did not express the precursor from of IL-1α | 253 | clearly demonstrated its broad immunosuppressive action on these two macrophage functions | 25 | clearly demonstrated its broad immunosuppressive action on these two macrophage functions | – | – | – | – | – | – | – | –
c1cc(C2=NCCN2)ccc1OCCCCCOc1ccc(C2=NCCN2)cc1 [Imidazoline, 1,5-di(4-imidazolinophenoxy)pentane] | – | – | – | – | – | – | blocked IL-1 in a dose related manner | No effect | ability to block IL-1 | 46 ± 19 | ability to block IL-1 and tumor necrosis factor | blocks the secretion of IL-1 in a similar manner to pentamidine | > 100 | less toxic to the cell
